*1 amine or outer side, *2 acyl side, *3 side chain or, on linkers, in order; H or OH if unused. Where a SMILES comes first, the peptide text is derived from it. Side-chain parts run from the residue outwards. [ ]: non-standard residue; d: D form. The star is where a group is joined. Abu(4,4,4-F3) = N[C@@H](CC(F)(F)F)C(=O)O; X1 = CC(C)NC[C@H](N[*:1])C(=O)[*:2]; Orn(iPr) = CC(C)NCCC[C@H](N)C(=O)O; Cha = N[C@@H](CC1CCCCC1)C(=O)O; Chg = N[C@H](C(=O)O)C1CCCCC1; Phg = N[C@H](C(=O)O)c1ccccc1; Tle = CC(C)(C)[C@H](N)C(=O)O; dDab = NCC[C@@H](N)C(=O)O; Orn = NCCC[C@H](N)C(=O)O; Dab = NCC[C@H](N)C(=O)O; Dap = NC[C@H](N)C(=O)O; X4 = CCCCOc1ccc(N*)cc1; CO = O=C([*:1])[*:2]; X3 = O=C(C(O)CO)*; NHiPr = CC(C)N*

The series deals with human red blood cells (hRBC). As to the kind of experiment: Hemolysis of human red blood cells. In kind it is cell-based. To be noted: red cells of human, 1 h, 100. A digest of the protocol:
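Washed fresh human erythrocytes (20% v/v, about 0.9×10^9 cells/ml final) incubated with peptide at 100 μg/ml for 1 h at 37° C with shaking. Supernatant OD540 read; hemolysis expressed relative to 2.5% Triton X-100 (100%) and PBS with 0.001% acetic acid (0%).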
Turning to `CC(C)[C@@H]1NC(=O)[C@@H]2CCCN2C(=O)[C@H]2CCCN2C(=O)[C@H](CO)NC(=O)[C@H](C)NC(=O)[C@H](C(C)(C)C)NC(=O)[C@H](CCN)NC(=O)[C@H](Cc2c[nH]c3ccccc23)NC(=O)[C@H](CCN)NC(=O)[C@H](CCN)NC(=O)[C@H](CCCN)NC(=O)[C@H](CCN)NC(=O)[C@H](Cc2ccc(O)cc2)NC(=O)[C@H](CO)NC1=O` [compound 49] (cyclo(VSY[Dab][Orn][Dab][Dab]W[Dab][Tle]AS[dP]P)), the “Hemolysis at 100 μg/ml” value stood at 1%. To `C[C@@H]1NC(=O)[C@H](C2CCCCC2)NC(=O)[C@H](CCN)NC(=O)[C@H](Cc2c[nH]c3ccccc23)NC(=O)[C@H](CCN)NC(=O)[C@@H](CCN)NC(=O)[C@H](CCCN)NC(=O)[C@H](CCN)NC(=O)[C@H](Cc2ccc(O)cc2)NC(=O)[C@H](CO)NC(=O)[C@H](Cc2ccc(O)cc2)NC(=O)[C@@H]2CCCN2C(=O)[C@H]2CCCN2C(=O)[C@H](CO)NC1=O` [compound 73] (cyclo(YSY[Dab][Orn][dDab][Dab]W[Dab][Chg]AS[dP]P)) belongs 0%; to `CC(C)NCCC[C@@H]1NC(=O)[C@H](CCN)NC(=O)[C@H](CC2CCCCC2)NC(=O)[C@H](CNC(C)C)NC(=O)[C@H](Cc2c[nH]c3ccccc23)NC(=O)[C@@H]2CCCN2C(=O)[C@H]2CCCN2C(=O)[C@H](CO)NC(=O)[C@H](CO)NC(=O)[C@H](C(C)(C)C)NC(=O)[C@H](CCN)NC(=O)[C@H](Cc2c[nH]c3ccccc23)NC(=O)[C@H](CCN)NC(=O)[C@@H](CCN)NC1=O` [compound 8] (cyclo(W[X1][Cha][Dab][Orn(iPr)][dDab][Dab]W[Dab][Tle]SS[dP]P)), 7%.

In the case of `CC(C)C[C@@H]1NC(=O)[C@@H]2CCCN2C(=O)[C@H]2CCCN2C(=O)[C@H](CO)NC(=O)[C@H](C)NC(=O)[C@H](Cc2c[nH]c3ccccc23)NC(=O)[C@H](CCN)NC(=O)[C@H](Cc2c[nH]c3ccccc23)NC(=O)[C@H](CCN)NC(=O)[C@@H](CCN)NC(=O)[C@H](CCCN)NC(=O)[C@H](CCN)NC(=O)[C@H](Cc2c[nH]c3ccccc23)NC(=O)[C@H](CO)NC1=O` [compound 109] (cyclo(LSW[Dab][Orn][dDab][Dab]W[Dab]WAS[dP]P)), the “Hemolysis at 100 μg/ml” value amounted to 2%. To `CC(C)NC(=O)NC[C@@H]1NC(=O)[C@H](C)NC(=O)[C@H](C(C)(C)C)NC(=O)[C@H](CCN)NC(=O)[C@H](Cc2c[nH]c3ccccc23)NC(=O)[C@H](CCN)NC(=O)[C@@H](CCN)NC(=O)[C@H](CCCN)NC(=O)[C@H](CCN)NC(=O)[C@H](CC2CCCCC2)NC(=O)[C@H](C)NC(=O)[C@H](Cc2c[nH]c3ccccc23)NC(=O)[C@@H]2CCCN2C(=O)[C@H]2CCCN2C1=O` [compound 20] (cyclo(WA[Cha][Dab][Orn][dDab][Dab]W[Dab][Tle]A[Dap]([CO-NHiPr])[dP]P)) belongs 4%; to `C[C@@H]1NC(=O)[C@H](C(C)(C)C)NC(=O)[C@H](CCN)NC(=O)[C@H](Cc2c[nH]c3ccccc23)NC(=O)[C@H](CCN)NC(=O)[C@@H](CCN)NC(=O)[C@H](CCCN)NC(=O)[C@H](CCN)NC(=O)[C@H](Cc2ccc(O)cc2)NC(=O)[C@H](CO)NC(=O)[C@H](CC(F)(F)F)NC(=O)[C@@H]2CCCN2C(=O)[C@H]2CCCN2C(=O)[C@H](CO)NC1=O` [compound 156] (cyclo([Abu(4,4,4-F3)]SY[Dab][Orn][dDab][Dab]W[Dab][Tle]AS[dP]P)), 1%; to `CC(C)C[C@@H]1NC(=O)[C@@H]2CCCN2C(=O)[C@H]2CCCN2C(=O)[C@H](CO)NC(=O)[C@H](C)NC(=O)[C@H](C2CCCCC2)NC(=O)[C@H](CCN)NC(=O)[C@H](Cc2c[nH]c3ccccc23)NC(=O)[C@H](CCN)NC(=O)[C@@H](CCN)NC(=O)[C@H](CCCN)NC(=O)[C@H](CCN)NC(=O)[C@H](Cc2ccc(O)cc2)NC(=O)[C@H](C)NC1=O` [compound 129] (cyclo(LAY[Dab][Orn][dDab][Dab]W[Dab][Chg]AS[dP]P)), 1%.

Regarding `CC(C)C[C@@H]1NC(=O)[C@@H]2CCCN2C(=O)[C@H]2CCCN2C(=O)[C@H](CO)NC(=O)[C@H](C)NC(=O)[C@H](C(C)(C)C)NC(=O)[C@H](CN)NC(=O)[C@H](Cc2c[nH]c3ccccc23)NC(=O)[C@H](CCN)NC(=O)[C@@H](CCN)NC(=O)[C@H](CCCN)NC(=O)[C@H](CCN)NC(=O)[C@H](Cc2ccc(O)cc2)NC(=O)[C@H](CO)NC1=O` [compound 101] (cyclo(LSY[Dab][Orn][dDab][Dab]W[Dap][Tle]AS[dP]P)), the “Hemolysis at 100 μg/ml” value worked out at 1%.

In the case of `C[C@@H]1NC(=O)[C@H](C(C)(C)C)NC(=O)[C@H](CCN)NC(=O)[C@H](Cc2c[nH]c3ccccc23)NC(=O)[C@H](CCN)NC(=O)[C@H](CCN)NC(=O)[C@H](CCCN)NC(=O)[C@H](CCN)NC(=O)[C@H](CC2CCCCC2)NC(=O)[C@H](CO)NC(=O)[C@H](Cc2c[nH]c3ccccc23)NC(=O)[C@@H]2CCCN2C(=O)[C@H]2CCCN2C(=O)[C@H](CO)NC1=O` [Ex. 1] (cyclo(WS[Cha][Dab][Orn][Dab][Dab]W[Dab][Tle]AS[dP]P)), the “Hemolysis at 100 μg/ml” value is 1%. Then `C[C@@H]1NC(=O)[C@H](C(C)(C)C)NC(=O)[C@H](CCN)NC(=O)[C@H](Cc2c[nH]c3ccccc23)NC(=O)[C@H](CCN)NC(=O)[C@@H](CCN)NC(=O)[C@H](CCCN)NC(=O)[C@H](CCN)NC(=O)[C@H](CC2CCCCC2)NC(=O)[C@H](CNC(=O)[C@@H](N)[C@@H](C)O)NC(=O)[C@H](Cc2c[nH]c3ccccc23)NC(=O)[C@@H]2CCCN2C(=O)[C@H]2CCCN2C(=O)[C@H](CO)NC1=O` [compound 14] (cyclo(W[Dap](Thr)[Cha][Dab][Orn][dDab][Dab]W[Dab][Tle]AS[dP]P)), with 0%. Consider `CC(=O)N[C@H](C(=O)NC[C@@H]1NC(=O)[C@H](Cc2c[nH]c3ccccc23)NC(=O)[C@@H]2CCCN2C(=O)[C@H]2CCCN2C(=O)[C@H](CO)NC(=O)[C@H](C)NC(=O)[C@H](C(C)(C)C)NC(=O)[C@H](CCN)NC(=O)[C@H](Cc2c[nH]c3ccccc23)NC(=O)[C@H](CCN)NC(=O)[C@@H](CCN)NC(=O)[C@H](CCCN)NC(=O)[C@H](CCN)NC(=O)[C@H](CC2CCCCC2)NC1=O)[C@@H](C)O` [compound 15] (cyclo(W[Dap]([Thr-Ac])[Cha][Dab][Orn][dDab][Dab]W[Dab][Tle]AS[dP]P)), for which the “Hemolysis at 100 μg/ml” value came out at 1%. `C[C@@H]1NC(=O)[C@H](C(C)(C)C)NC(=O)[C@H](CCN)NC(=O)[C@H](Cc2c[nH]c3ccccc23)NC(=O)[C@H](CCN)NC(=O)[C@@H](CCN)NC(=O)[C@H](CCCN)NC(=O)[C@H](CCN)NC(=O)[C@H](CC2CCCCC2)NC(=O)[C@H](CNC(=O)C(O)CO)NC(=O)[C@H](Cc2c[nH]c3ccccc23)NC(=O)[C@@H]2CCCN2C(=O)[C@H]2CCCN2C(=O)[C@H](CO)NC1=O` (stereo partly drawn) [compound 13] (cyclo(W[Dap](X3)[Cha][Dab][Orn][dDab][Dab]W[Dab][Tle]AS[dP]P)): the “Hemolysis at 100 μg/ml” value is listed as 2%. Then `COc1ccc(C[C@@H]2NC(=O)[C@H](CCN)NC(=O)[C@H](Cc3c[nH]c4ccccc34)NC(=O)[C@H](CCN)NC(=O)[C@@H](CCN)NC(=O)[C@H](CCCN)NC(=O)[C@H](CCN)NC(=O)[C@H](Cc3ccc(O)cc3)NC(=O)[C@H](CO)NC(=O)[C@H](CC(C)C)NC(=O)[C@@H]3CCCN3C(=O)[C@H]3CCCN3C(=O)[C@H](CO)NC(=O)[C@H](C)NC2=O)cc1` [compound 32] (cyclo(LSY[Dab][Orn][dDab][Dab]W[Dab]Y(Me)AS[dP]P)), with 1%.

`CC(C)[C@@H]1NC(=O)[C@@H]2CCCN2C(=O)[C@H]2CCCN2C(=O)[C@H](CO)NC(=O)[C@H](C)NC(=O)[C@H](C(C)(C)C)NC(=O)[C@H](CCN)NC(=O)[C@H](Cc2c[nH]c3ccccc23)NC(=O)[C@H](CCN)NC(=O)[C@@H](CCN)NC(=O)[C@H](CCCN)NC(=O)[C@H](CCN)NC(=O)[C@H](CC2CCCCC2)NC(=O)[C@H](CO)NC1=O` [compound 50] (cyclo(VS[Cha][Dab][Orn][dDab][Dab]W[Dab][Tle]AS[dP]P)): the “Hemolysis at 100 μg/ml” value was 4%. Then `CC(C)C[C@@H]1NC(=O)[C@@H]2CCCN2C(=O)[C@H]2CCCN2C(=O)[C@H](CO)NC(=O)[C@H](C)NC(=O)[C@H](c2ccccc2)NC(=O)[C@H](CCN)NC(=O)[C@H](Cc2c[nH]c3ccccc23)NC(=O)[C@H](CCN)NC(=O)[C@@H](CCN)NC(=O)[C@H](CCCN)NC(=O)[C@H](CCN)NC(=O)[C@H](Cc2ccc(O)cc2)NC(=O)[C@H](CO)NC1=O` [compound 107] (cyclo(LSY[Dab][Orn][dDab][Dab]W[Dab][Phg]AS[dP]P)), with 2%; and `CCCCOc1ccc(NC(=O)NC[C@@H]2NC(=O)[C@H](CC(C)C)NC(=O)[C@@H]3CCCN3C(=O)[C@H]3CCCN3C(=O)[C@H](CO)NC(=O)[C@H](C)NC(=O)[C@H](C(C)(C)C)NC(=O)[C@H](CCN)NC(=O)[C@H](Cc3c[nH]c4ccccc34)NC(=O)[C@H](CCN)NC(=O)[C@@H](CCN)NC(=O)[C@H](CCCN)NC(=O)[C@H](CCN)NC(=O)[C@H](CC3CCCCC3)NC2=O)cc1` [compound 41] (cyclo(L[Dap]([CO-X4])[Cha][Dab][Orn][dDab][Dab]W[Dab][Tle]AS[dP]P)), with 7%. Consider `CC(C)C[C@@H]1NC(=O)[C@@H]2CCCN2C(=O)[C@H]2CCCN2C(=O)[C@H](CO)NC(=O)[C@H](C)NC(=O)[C@H](C(C)(C)C)NC(=O)[C@H](CCN)NC(=O)[C@H](Cc2c[nH]c3ccccc23)NC(=O)[C@H](CCCN)NC(=O)[C@@H](CCN)NC(=O)[C@H](CCCN)NC(=O)[C@H](CCN)NC(=O)[C@H](Cc2ccc(O)cc2)NC(=O)[C@H](CO)NC1=O` [compound 99] (cyclo(LSY[Dab][Orn][dDab][Orn]W[Dab][Tle]AS[dP]P)), for which the “Hemolysis at 100 μg/ml” value is on record as 0%. Consider `CC[C@H](C)[C@@H]1NC(=O)[C@H](CCN)NC(=O)[C@H](Cc2c[nH]c3ccccc23)NC(=O)[C@H](CCN)NC(=O)[C@@H](CCN)NC(=O)[C@H](CCCN)NC(=O)[C@H](CCN)NC(=O)[C@H](Cc2ccc(O)cc2)NC(=O)[C@H](CO)NC(=O)[C@H]([C@@H](C)CC)NC(=O)[C@@H]2CCCN2C(=O)[C@H]2CCCN2C(=O)[C@H](CO)NC(=O)[C@H](C)NC1=O` [compound 81] (cyclo(ISY[Dab][Orn][dDab][Dab]W[Dab]IAS[dP]P)), for which the “Hemolysis at 100 μg/ml” value came to 1%.

Source of the values: patent publication US9938322B2, “β-hairpin peptidomimetics” (priority 2013, dated 2018).
